Experimental data as given in a compilation of properties of binary mixtures (doi:10.1007/s10973-023-12194-1).

Experiment: xn = mol fraction of the nth substance listed
Conditions: 101.3 kPa

## CCCC[NH3+].O=[N+]([O-])[O-] + O
283.15 K, x2 = 0.435
  viscosity: 43.41 mPa·s
288.15 K, x2 = 0.435
  viscosity: 35.87 mPa·s
293.15 K, x2 = 0.435
  viscosity: 29.92 mPa·s
303.15 K, x2 = 0.435
  viscosity: 21.45 mPa·s
308.15 K, x2 = 0.435
  viscosity: 18.52 mPa·s
313.15 K, x2 = 0.435
  viscosity: 16.04 mPa·s
318.15 K, x2 = 0.435
  viscosity: 14.65 mPa·s
323.15 K, x2 = 0.435
  viscosity: 12.38 mPa·s
328.15 K, x2 = 0.435
  viscosity: 11.26 mPa·s
333.15 K, x2 = 0.435
  viscosity: 9.535 mPa·s
338.15 K, x2 = 0.435
  viscosity: 8.605 mPa·s
343.15 K, x2 = 0.435
  viscosity: 7.11 mPa·s
348.15 K, x2 = 0.435
  viscosity: 6.46 mPa·s
353.15 K, x2 = 0.435
  viscosity: 5.89 mPa·s
358.15 K, x2 = 0.435
  viscosity: 5.4 mPa·s
363.15 K, x2 = 0.435
  viscosity: 4.98 mPa·s
368.15 K, x2 = 0.435
  viscosity: 4.6 mPa·s
373.15 K, x2 = 0.435
  viscosity: 4.266 mPa·s

## CC[NH3+].O=[N+]([O-])[O-] + O
283.15 K, x2 = 0.574
  viscosity: 8.965 mPa·s
288.15 K, x2 = 0.574
  viscosity: 6.679 mPa·s
293.15 K, x2 = 0.574
  viscosity: 6.018 mPa·s
298.15 K, x2 = 0.574
  viscosity: 5.487 mPa·s
313.15 K, x2 = 0.574
  viscosity: 4.258 mPa·s
318.15 K, x2 = 0.574
  viscosity: 3.893 mPa·s
323.15 K, x2 = 0.574
  viscosity: 3.622 mPa·s
333.15 K, x2 = 0.574
  viscosity: 3.173 mPa·s
338.15 K, x2 = 0.574
  viscosity: 3.007 mPa·s
348.15 K, x2 = 0.574
  viscosity: 1.807 mPa·s
353.15 K, x2 = 0.574
  viscosity: 1.695 mPa·s
358.15 K, x2 = 0.574
  viscosity: 1.589 mPa·s
363.15 K, x2 = 0.574
  viscosity: 1.492 mPa·s
368.15 K, x2 = 0.574
  viscosity: 1.434 mPa·s
373.15 K, x2 = 0.574
  viscosity: 1.343 mPa·s
